Data reported in ChEMBL document CHEMBL5465560, “Selectivity Literature for EUbOPEN Chemogenomic Library” (2024).

Columns and labels:
[1] = biological target: High affinity nerve growth factor receptor (Homo sapiens, UniProt P04629); assay: Selectivity interaction (KinomeScan (DiscoverX)) EUB0000666a NTRK1; conditions: at 10 µM
[2] = biological target: Mitogen-activated protein kinase 7 (Homo sapiens) (UniProt Q13164); conditions: at 10 µM
[3] = biological target: Mitogen-activated protein kinase 14 (Homo sapiens, UniProt Q16539); assay: Selectivity interaction (KinomeScan (DiscoverX)) EUB0001049a MAPK14; conditions: at 1 µM
[4] = biological target: Death-associated protein kinase 3 (Homo sapiens) (UniProt O43293); assay: Selectivity interaction (KinomeScan (DiscoverX)) EUB0001049a DAPK3; conditions: at 1 µM
[5] = biological target: Tyrosine-protein kinase SYK (Homo sapiens, UniProt P43405); assay: Selectivity interaction (ActivX KiNativ screen (ex vivo kinase selectivity in human PBMCs)) EUB0001619a SYK; format: cell-based; conditions: PBMC, at 1 µM
[6] = biological target: T1, MAP/microtubule affinity-regulating kinase 4 (Homo sapiens) (UniProt Q96L34); assay: Selectivity interaction (KinomeScan (DiscoverX)) EUB0000607a MARK4; conditions: at 10 µM
T1 sequence (whole entry): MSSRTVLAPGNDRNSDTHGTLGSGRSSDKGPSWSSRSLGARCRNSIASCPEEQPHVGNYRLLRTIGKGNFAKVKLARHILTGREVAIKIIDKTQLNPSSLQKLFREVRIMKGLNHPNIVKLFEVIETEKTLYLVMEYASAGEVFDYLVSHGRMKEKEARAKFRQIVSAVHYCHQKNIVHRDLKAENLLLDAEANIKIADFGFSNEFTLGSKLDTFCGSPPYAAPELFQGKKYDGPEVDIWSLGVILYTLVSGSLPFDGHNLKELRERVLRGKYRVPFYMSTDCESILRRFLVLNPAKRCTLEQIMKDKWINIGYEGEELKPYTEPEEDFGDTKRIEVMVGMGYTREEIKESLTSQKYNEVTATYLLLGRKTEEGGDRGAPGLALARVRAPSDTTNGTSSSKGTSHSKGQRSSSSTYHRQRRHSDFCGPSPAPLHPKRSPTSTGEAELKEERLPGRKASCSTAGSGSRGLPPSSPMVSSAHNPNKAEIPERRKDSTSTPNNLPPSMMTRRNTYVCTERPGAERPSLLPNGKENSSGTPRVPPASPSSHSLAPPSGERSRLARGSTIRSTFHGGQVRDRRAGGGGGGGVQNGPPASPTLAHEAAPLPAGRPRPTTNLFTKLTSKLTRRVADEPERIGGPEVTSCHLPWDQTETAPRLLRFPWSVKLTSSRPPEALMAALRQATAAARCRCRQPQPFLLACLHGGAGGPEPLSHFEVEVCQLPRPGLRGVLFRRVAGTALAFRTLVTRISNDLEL

[7] = biological target: T2, Myosin-IIIb (Homo sapiens) (UniProt Q8WXR4); conditions: at 10 µM
T2 sequence (whole entry): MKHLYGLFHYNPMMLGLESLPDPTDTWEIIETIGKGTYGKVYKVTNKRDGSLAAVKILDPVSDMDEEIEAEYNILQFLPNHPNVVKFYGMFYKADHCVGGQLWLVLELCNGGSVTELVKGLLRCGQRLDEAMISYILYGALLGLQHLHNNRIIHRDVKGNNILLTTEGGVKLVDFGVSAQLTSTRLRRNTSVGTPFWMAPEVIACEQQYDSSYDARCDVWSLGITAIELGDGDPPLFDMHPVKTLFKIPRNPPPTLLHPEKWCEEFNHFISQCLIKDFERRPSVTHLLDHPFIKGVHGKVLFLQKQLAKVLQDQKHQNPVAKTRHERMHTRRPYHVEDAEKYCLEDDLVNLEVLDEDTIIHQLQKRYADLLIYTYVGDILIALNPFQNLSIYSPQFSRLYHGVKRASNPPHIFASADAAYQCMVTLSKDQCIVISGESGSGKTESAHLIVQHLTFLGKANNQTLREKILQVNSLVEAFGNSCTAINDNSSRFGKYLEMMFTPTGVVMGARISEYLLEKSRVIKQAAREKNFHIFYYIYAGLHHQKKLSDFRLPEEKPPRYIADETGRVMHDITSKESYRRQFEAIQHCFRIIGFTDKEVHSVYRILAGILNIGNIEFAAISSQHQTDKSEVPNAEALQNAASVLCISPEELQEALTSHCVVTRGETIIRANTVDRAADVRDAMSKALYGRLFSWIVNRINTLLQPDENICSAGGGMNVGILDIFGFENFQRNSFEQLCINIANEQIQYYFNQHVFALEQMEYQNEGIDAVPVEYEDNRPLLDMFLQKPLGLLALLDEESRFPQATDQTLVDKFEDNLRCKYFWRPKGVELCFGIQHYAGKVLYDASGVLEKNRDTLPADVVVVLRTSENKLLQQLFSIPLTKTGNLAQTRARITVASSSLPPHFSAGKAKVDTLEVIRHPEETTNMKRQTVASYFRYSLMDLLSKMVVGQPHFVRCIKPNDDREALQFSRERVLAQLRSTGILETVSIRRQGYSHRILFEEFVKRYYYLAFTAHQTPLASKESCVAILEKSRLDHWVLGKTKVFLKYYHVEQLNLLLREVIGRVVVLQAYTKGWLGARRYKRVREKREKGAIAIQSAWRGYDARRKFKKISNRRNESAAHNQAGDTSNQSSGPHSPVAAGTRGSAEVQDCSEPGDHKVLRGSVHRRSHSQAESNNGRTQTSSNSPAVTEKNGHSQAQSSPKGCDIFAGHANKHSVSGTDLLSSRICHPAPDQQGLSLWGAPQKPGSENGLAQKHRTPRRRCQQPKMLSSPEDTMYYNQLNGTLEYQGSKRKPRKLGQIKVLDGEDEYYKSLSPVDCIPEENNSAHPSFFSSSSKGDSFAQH

[8] = biological target: T3, Calcium/calmodulin-dependent protein kinase type IV (Homo sapiens) (UniProt Q16566); assay: Selectivity interaction (KinomeScan (DiscoverX)) EUB0000092b CAMK4; conditions: at 10 µM
T3 sequence (whole entry): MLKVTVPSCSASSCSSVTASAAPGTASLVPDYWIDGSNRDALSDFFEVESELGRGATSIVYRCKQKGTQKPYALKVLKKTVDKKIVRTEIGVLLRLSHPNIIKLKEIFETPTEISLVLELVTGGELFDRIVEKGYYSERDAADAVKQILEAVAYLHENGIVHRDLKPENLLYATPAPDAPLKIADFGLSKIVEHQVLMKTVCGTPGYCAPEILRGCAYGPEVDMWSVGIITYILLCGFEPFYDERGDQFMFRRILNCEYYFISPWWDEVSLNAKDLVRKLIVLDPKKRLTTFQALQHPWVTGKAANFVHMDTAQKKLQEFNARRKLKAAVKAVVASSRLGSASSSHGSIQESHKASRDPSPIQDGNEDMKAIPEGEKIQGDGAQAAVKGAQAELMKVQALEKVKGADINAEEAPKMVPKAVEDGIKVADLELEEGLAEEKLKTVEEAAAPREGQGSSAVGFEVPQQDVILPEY

[9] = biological target: Ribosomal protein S6 kinase alpha-4 (Homo sapiens) (UniProt O75676); assay: Selectivity interaction (KinomeScan (DiscoverX)) EUB0000092b RPS6KA4; conditions: at 10 µM
Sequence of Ribosomal protein S6 kinase alpha-4 (Homo sapiens) (O75676 whole entry, looked up): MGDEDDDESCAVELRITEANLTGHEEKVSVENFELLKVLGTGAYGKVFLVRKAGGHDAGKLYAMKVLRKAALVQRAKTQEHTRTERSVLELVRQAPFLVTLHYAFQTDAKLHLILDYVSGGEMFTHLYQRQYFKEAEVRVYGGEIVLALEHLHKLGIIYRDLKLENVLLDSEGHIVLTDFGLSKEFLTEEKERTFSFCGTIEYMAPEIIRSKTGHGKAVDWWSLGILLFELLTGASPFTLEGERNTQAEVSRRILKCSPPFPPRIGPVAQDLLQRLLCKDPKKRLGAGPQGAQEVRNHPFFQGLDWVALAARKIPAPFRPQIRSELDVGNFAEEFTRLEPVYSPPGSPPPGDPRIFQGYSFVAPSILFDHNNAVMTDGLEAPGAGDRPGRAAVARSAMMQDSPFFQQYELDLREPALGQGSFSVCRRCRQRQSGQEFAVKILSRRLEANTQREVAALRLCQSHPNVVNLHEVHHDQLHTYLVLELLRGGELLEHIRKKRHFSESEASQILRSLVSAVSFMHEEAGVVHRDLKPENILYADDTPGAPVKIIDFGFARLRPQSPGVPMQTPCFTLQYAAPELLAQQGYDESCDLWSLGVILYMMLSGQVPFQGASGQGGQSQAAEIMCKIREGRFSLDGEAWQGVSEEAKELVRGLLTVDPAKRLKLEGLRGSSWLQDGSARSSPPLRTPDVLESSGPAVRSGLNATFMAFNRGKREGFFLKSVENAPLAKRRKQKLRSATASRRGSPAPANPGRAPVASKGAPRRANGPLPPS

Sequence of High affinity nerve growth factor receptor (P04629 33-796 limits assumed): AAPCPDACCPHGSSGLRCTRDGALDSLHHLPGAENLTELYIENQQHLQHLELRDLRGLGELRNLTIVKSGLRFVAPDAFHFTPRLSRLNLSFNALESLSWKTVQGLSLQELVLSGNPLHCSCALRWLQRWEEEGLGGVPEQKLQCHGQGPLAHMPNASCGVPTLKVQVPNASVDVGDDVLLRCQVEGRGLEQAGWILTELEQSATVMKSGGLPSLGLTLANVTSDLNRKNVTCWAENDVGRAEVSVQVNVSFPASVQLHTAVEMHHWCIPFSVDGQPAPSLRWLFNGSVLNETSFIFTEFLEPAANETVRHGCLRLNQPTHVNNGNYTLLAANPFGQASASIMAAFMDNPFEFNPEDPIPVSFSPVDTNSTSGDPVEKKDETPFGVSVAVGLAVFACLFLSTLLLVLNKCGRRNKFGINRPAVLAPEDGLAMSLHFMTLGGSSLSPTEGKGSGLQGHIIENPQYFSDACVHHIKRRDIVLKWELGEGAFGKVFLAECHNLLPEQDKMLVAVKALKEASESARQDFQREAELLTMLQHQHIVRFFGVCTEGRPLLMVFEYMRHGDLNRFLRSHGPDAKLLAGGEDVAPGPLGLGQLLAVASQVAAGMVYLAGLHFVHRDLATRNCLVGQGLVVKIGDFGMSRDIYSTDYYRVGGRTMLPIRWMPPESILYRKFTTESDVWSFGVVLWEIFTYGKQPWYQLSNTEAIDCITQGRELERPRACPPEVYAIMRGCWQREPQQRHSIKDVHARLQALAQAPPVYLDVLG
Sequence of Mitogen-activated protein kinase 7 (Homo sapiens) (Q13164 2-816 limits assumed): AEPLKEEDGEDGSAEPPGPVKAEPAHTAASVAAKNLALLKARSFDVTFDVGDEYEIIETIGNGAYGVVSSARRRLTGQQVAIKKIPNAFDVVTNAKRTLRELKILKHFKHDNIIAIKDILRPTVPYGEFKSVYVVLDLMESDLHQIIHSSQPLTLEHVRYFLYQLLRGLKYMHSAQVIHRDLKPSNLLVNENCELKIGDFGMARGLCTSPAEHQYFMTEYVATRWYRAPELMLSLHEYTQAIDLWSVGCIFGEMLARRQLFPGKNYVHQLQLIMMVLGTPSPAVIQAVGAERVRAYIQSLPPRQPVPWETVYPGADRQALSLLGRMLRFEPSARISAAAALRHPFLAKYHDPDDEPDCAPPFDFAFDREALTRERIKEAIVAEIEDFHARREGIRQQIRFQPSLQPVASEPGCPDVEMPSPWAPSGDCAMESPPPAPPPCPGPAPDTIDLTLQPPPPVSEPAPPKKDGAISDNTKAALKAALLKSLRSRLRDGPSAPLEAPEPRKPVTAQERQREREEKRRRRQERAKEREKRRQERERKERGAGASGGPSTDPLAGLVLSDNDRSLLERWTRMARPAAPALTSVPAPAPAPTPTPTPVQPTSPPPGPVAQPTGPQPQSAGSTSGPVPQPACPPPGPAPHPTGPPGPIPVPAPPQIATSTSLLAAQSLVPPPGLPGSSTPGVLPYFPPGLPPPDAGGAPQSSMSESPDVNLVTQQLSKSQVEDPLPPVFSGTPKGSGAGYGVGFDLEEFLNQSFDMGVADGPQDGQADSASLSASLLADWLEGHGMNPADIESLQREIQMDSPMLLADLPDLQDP
Sequence of Death-associated protein kinase 3 (Homo sapiens) (O43293 whole entry, looked up): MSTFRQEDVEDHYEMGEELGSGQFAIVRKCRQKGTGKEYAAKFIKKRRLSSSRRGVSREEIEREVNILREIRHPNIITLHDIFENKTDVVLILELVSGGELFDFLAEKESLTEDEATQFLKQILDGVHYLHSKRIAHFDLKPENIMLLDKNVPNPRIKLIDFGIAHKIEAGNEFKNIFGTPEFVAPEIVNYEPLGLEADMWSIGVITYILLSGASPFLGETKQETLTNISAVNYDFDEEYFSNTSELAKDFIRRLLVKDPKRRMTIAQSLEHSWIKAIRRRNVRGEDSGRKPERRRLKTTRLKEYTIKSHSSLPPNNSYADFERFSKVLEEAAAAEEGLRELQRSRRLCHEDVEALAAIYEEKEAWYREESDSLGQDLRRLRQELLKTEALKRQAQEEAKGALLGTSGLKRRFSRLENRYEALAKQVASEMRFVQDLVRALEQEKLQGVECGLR
Sequence of Mitogen-activated protein kinase 14 (Q16539 whole entry): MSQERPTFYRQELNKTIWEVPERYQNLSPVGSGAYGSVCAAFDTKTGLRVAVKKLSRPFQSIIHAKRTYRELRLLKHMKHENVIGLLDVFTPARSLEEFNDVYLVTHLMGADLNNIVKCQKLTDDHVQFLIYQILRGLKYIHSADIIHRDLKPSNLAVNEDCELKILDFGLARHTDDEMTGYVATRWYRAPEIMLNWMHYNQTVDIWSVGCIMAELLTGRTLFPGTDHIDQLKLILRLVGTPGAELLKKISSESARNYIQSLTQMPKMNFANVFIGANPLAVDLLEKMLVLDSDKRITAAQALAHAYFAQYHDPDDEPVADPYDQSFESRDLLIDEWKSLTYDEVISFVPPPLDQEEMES

## O=C(NOC[C@H](O)CO)c1ccc(F)c(F)c1Nc1ccc(I)cc1F
[1]
  % of control: 100%

## Cc1cc([C@@H](C)Nc2ccccc2C(=O)O)c2nc(N3CCOCC3)cc(=O)n2c1 [AZD-6482]
[2]
  % of control: 100%

## COc1cc(Nc2nc(C)cc(-c3cnn4nc(OC)ccc34)n2)cc(C(F)(F)F)c1
[3]
  % of control: 87%
[4]
  % of control: 100%

## N#Cc1cccc(-c2c[nH]c3ncnc(N4CCOCC4)c23)c1
[5]
  % of inhibition: 1%

## CNC(=O)Nc1ccc(-c2nc(N3CC4CCC(C3)O4)c3cnn(C4CCC5(CC4)OCCO5)c3n2)cc1
[6]
  % of control: 94%

## CCN(CC)CCCCNc1ncc2cc(-c3cc(OC)cc(OC)c3)c(NC(=O)NC(C)(C)C)nc2n1
[7]
  % of control: 100%

## CCC(=O)N1CCN(c2ccc(-n3c(=O)ccc4cnc5ccc(-c6cnc7ccccc7c6)cc5c43)cc2C(F)(F)F)CC1
[8]
  % of control: 90%
[9]
  % of control: 100%
